{"source": "ChEMBL document CHEMBL1128334", "about": "“X-ray crystal structure, partitioning behavior, and molecular modeling study of piracetam-type nootropics: insights into the pharmacophore” (J Med Chem, 1995)"}
{"assay": "(§1) Partition coefficient (logP)", "type": "physicochemical", "settings": "octanol/water"}
{"smiles": "CCOC(=O)C1CNC(=O)CC1C(=O)OCC", "note": "(stereo in doubt; 6)", "logP": -0.03}
{"smiles": "O=C1CC2C(=O)NCC2CN1", "note": "(stereo in doubt; 3)", "logP": -2}
{"smiles": "O=C1CC2C(=O)NCC2CN1", "note": "(stereo in doubt; 2)", "logP": -2.11}
{"smiles": "CCOC(=O)C1CNC(=O)CC1C(=O)OCC", "note": "(stereo in doubt; 7)", "logP": 0.17}
{"assay": "as §1", "type": "physicochemical", "settings": "octanol/water; read-out: logP"}
{"smiles": "NC(=O)CN1CCCC1=O", "note": "[PIRACETAM]", "logP": -1.54}
{"smiles": "O=C1CCCCN1", "logP": -0.47}
{"smiles": "O=C1CCC2CCC(=O)N12", "note": "[ROLZIRACETAM]", "logP": -1.11}
{"smiles": "O=C1CCCN1", "note": "[2-PYRROLIDONE]", "logP": -0.71}
{"smiles": "O=C1NCC[C@@H]2CNC(=O)[C@H]12", "logP": -1.95}
